In ChEMBL document CHEMBL1201862, “PubChem BioAssay data set” (2004):
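96-well plates; 48 h exposure; 5 concentrations. Endpoints by linear interpolation between flanking doses. Not reached: highest tested concentration assigned. The concentration for 50% growth inhibition is given as GI50.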 Active and inactive are the calls of the source. Cut-off read from the data, not from the text of the source: active = GI50 up to about 1.1 µM and inactive = higher.

Assays:
Experiment in all cases: DTP human tumour cell line panel, 48 h
[1] = tested on: SK-MEL-2
[2] = tested on: UACC-257
[3] = tested on: MOLT-4
[4] = tested on: M14
[5] = tested on: OVCAR-5
[6] = tested on: NCI-H460
[7] = tested on: ACHN
[8] = tested on: SK-MEL-5
[9] = tested on: SNB-75
[10] = tested on: HCT-116
[11] = tested on: A498
[12] = tested on: NCI-H522
[13] = tested on: RPMI-8226
[14] = tested on: OVCAR-4
[15] = tested on: HOP-92
[16] = tested on: RXF 393
[17] = tested on: NCI/ADR-RES
[18] = tested on: PC-3

Measured: GI50

COc1ccc2c(c1)C(=O)C1CC(=O)CCC21 (stereo not given)
inactive: [1] > 100 µM | [2] > 100 µM | [3] > 100 µM | [4] > 100 µM | [5] > 100 µM | [6] > 100 µM | [7] > 100 µM | [8] > 100 µM | [9] > 100 µM | [10] > 100 µM | [11] > 100 µM | [12] > 100 µM | [13] > 100 µM | [14] > 100 µM | [15] > 100 µM

C=C1C(=O)O[C@H]2C/C(C)=C/CC[C@]3(C)CCC[C@](C)(CC[C@@H]12)O3
inactive: [1] 8.51 µM | [2] 8.85 µM | [3] 6.71 µM | [5] 13.7 µM | [6] 6.79 µM | [7] 8.99 µM | [8] 6.44 µM | [9] 11.9 µM | [10] 8.69 µM | [16] 8.09 µM | [17] 7.91 µM | [12] 6.35 µM | [13] 5.93 µM | [18] 12.6 µM | [14] 15.1 µM | [15] 6.46 µM

CC(=O)N1[C@H](C(=O)O)CS[C@H]1c1ccc(F)cc1
inactive: [2] > 100 µM | [3] > 100 µM | [4] > 100 µM | [5] > 100 µM | [6] > 100 µM | [7] > 100 µM | [8] > 100 µM | [9] > 100 µM | [10] 29.1 µM | [11] > 100 µM | [16] > 100 µM | [14] > 100 µM | [15] > 100 µM

O=C(O/N=c1/ccc(=O)/c(=N\OC(=O)c2ccccc2)c1=O)c1ccccc1
inactive: [3] 40.2 µM | [4] > 100 µM | [5] > 100 µM | [6] > 100 µM | [7] > 100 µM | [8] > 100 µM | [9] > 100 µM | [10] > 100 µM | [11] > 100 µM | [16] > 100 µM | [17] > 100 µM | [12] > 100 µM | [13] 79.8 µM | [18] 76.4 µM | [14] > 100 µM | [15] > 100 µM

CSc1cc(Cl)c(C)cc1S(=O)(=O)NC(=O)NNc1ccccn1
inactive: [1] > 100 µM | [3] > 100 µM | [4] > 100 µM | [5] > 100 µM | [6] > 100 µM | [7] > 100 µM | [8] > 100 µM | [9] 5.21 µM | [10] > 100 µM | [11] > 100 µM | [16] > 100 µM | [17] > 100 µM | [12] > 100 µM | [18] > 100 µM | [14] > 100 µM

N#CC1CC2(C1)OCCS2 (stereo not given)
inactive: [1] > 100 µM | [2] > 100 µM | [3] > 100 µM | [4] > 100 µM | [5] > 100 µM | [6] > 100 µM | [7] > 100 µM | [9] 32.3 µM | [10] > 100 µM | [11] > 100 µM | [16] > 100 µM | [12] > 100 µM | [13] > 100 µM | [14] > 100 µM

CCN1CCCC(C#N)(c2ccccc2)CC1 (stereo not given)
inactive: [2] > 100 µM | [3] > 100 µM | [4] > 100 µM | [5] > 100 µM | [6] > 100 µM | [7] > 100 µM | [8] > 100 µM | [9] 99.5 µM | [10] > 100 µM | [11] > 100 µM | [16] > 100 µM | [17] > 100 µM | [13] > 100 µM | [18] > 100 µM | [14] > 100 µM | [15] > 100 µM
